Each molecule was assayed on HCV replicon cells (assay: HCV replicon FRET / luciferase assay (96-well plates)). Settings: Hepatitis C virus, 24 h, Table 1d (class symbols); HCV replicon; read-out: EC50.
Assay type: cell-based
Description: FRET Assay Preparation. To perform the HCV FRET screening assay, 96-well cell culture plates were used. The FRET peptide (Anaspec, Inc.) (Taliani et al., Anal. Biochem. 1996, 240, 60-67) contains a fluorescence donor, EDANS, near one end of the peptide and an acceptor, DABCYL, near the other end. The fluorescence of the peptide is quenched by […] resonance energy transfer (RET) between the donor and the acceptor, but as the NS3 protease cleaves the peptide the products are released from RET quenching and the fluorescence of the donor becomes apparent. The assay reagent was made as follows: 5× cell Luciferase cell culture lysis reagent from Promega (#E153A) diluted to 1× with dH2O, NaCl added to 150 mM final, the FRET peptide diluted to 20 μM final from a 2 mM stock.
To prepare plates, HCV replicon cells, with or without a Renilla luciferase reporter gene, were trypsinized and placed into each well of a 96-well plate with titrated test compounds added in columns 3 through 12; columns 1 and 2 contained a control compound (HCV protease inhibitor), and the bottom row contained cells without compound. The plates were then placed in a CO2 incubator at 37° C.
Assays. Subsequent to addition of the test compounds described above (FRET Assay Preparation), at various times the plate was removed and Alamar blue solution (Trek Diagnostics, #00-100) was added per well as a measure of cellular toxicity. After reading in a Cytoflour 4000 instrument (PE Biosystems), plates were rinsed with PBS and then used for FRET assay by the addition of 30 ul of the FRET peptide assay reagent described above (FRET Assay Preparation) per well. The plate was then placed into the Cytoflour 4000 instrument which had been set to 340 excite/490 emission, automatic mode for 20 cycles and the plate read in a kinetic mode. Typically, the signal to noise using an endpoint analysis after the reads was at least three-fold. Alternatively, after Alamar blue reading, plates were rinsed with PBS, 50 ul of DMEM (high glucose) without phenol red was added and plates were then used for luciferase assay using the Promega Dual-Glo Luciferase Assay System.
Compound analysis was determined by quantification of the relative HCV replicon inhibition and the relative cytotoxicity values. To calculate cytoxicity values, the average Alamar Blue fluorescence signals from the control wells were set as 100% non-toxic. The individual signals in each of the compound test wells were then divided by the average control signal and multiplied by 100% to determine […]. To calculate the HCV replicon inhibition values, an average background value was obtained from the two wells containing the highest amount of HCV protease inhibitor at the end of the assay period. These numbers were similar to those obtained from naïve Huh-7 cells.
The background numbers were then subtracted from the average signal obtained from the control wells and this number was used as 100% activity. The individual signals in each of the compound test wells were then divided by the averaged control values after background subtraction and multiplied by 100% to determine percent activity. EC50 values for a protease inhibitor titration were calculated as the concentration which caused a 50% reduction in FRET or luciferase activity. The two numbers generated for the compound plate, percent cytoxicity and percent activity were used to determine compounds of interest for further analysis.
`CNC(=O)c1c(-c2ccc(F)cc2)oc2ccc(-c3cc(C(=O)NC4(c5ncc(C)cn5)CC4)ccc3C)cc12` gave an EC50 of 1 to 250 nM.
With `CNC(=O)c1c(-c2ccc(F)cc2)oc2ccc(-c3cc(C(=O)NC4(c5cccnn5)CC4)ccc3C)c(F)c12` the EC50 was 1 to 250 nM.
`CNC(=O)c1c(-c2ccc(F)cc2)oc2ccc(-c3cc(C(=O)NC4(c5ccccn5)CC4)c(OCCN(C)C)cc3C)cc12` was tested, and the EC50 was 1 to 250 nM.
For `CNC(=O)c1c(-c2ccc(F)cc2)oc2ccc(-c3cc(C(=O)NC4(c5ccccn5)CC4)c(OCCCOC)cc3C)cc12`, the EC50 was 1 to 250 nM.
`CNC(=O)c1c(-c2ccc(F)cc2)oc2ccc(-c3cc(C(=O)NC4(c5cccnn5)CC4)c(OC)cc3C)cc12` was tested, and the EC50 was 1 to 250 nM.
For `CNC(=O)c1c(-c2ccc(F)cc2)oc2ccc(-c3cc(C(=O)NC4(c5nccc(C)n5)CC4)c(OC)cc3C)cc12`, the EC50 was 1 to 250 nM.
For `CNC(=O)c1c(-c2ccc(F)cc2)oc2ccc(-c3cc(C(=O)NC4(c5ccncn5)CC4)c(OC)cc3C)cc12`, the EC50 was 1 to 250 nM.
In the case of `CNC(=O)c1c(-c2ccc(F)cc2)oc2ccc(-c3cc(C(=O)NC4(c5cnccn5)CC4)ccc3C)c(F)c12`, the EC50 is reported as 1 to 250 nM.
Work on `CNC(=O)c1c(-c2ccc(F)cc2)oc2ccc(-c3cc(C(=O)NC4(c5ccccn5)CC4)c(OCc4ccccc4Cl)cc3C)cc12` yielded an EC50 of 1 to 250 nM.
With `CNC(=O)c1c(-c2ccc(F)cc2)oc2ccc(-c3cc(C(=O)NC4(c5ccnnc5)CC4)c(OC)cc3C)c(F)c12` [drawing 701] the EC50 was 1 to 250 nM.
Work on `CNC(=O)c1c(-c2ccc(F)cc2)oc2ccc(-c3cc(C(=O)NC4(c5ncc(C)cn5)CC4)c(OC)cc3C)cc12` yielded an EC50 of 1 to 250 nM.
`CNC(=O)c1c(-c2ccc(F)cc2)oc2ccc(-c3cc(C(=O)NC4(c5nc(C)cc(C)n5)CC4)c(OC)cc3C)c(F)c12` was tested, and the EC50 was 1 to 250 nM.
`CNC(=O)c1c(-c2ccc(F)cc2)oc2ccc(-c3cc(C(=O)NC4(c5cccnn5)CC4)ccc3C)cc12` was tested, and the EC50 was 1 to 250 nM.
With `CNC(=O)c1c(-c2ccc(F)cc2)oc2ccc(-c3cc(C(=O)NC4(c5ccccn5)CC4)c(OCCN4CCOCC4)cc3C)cc12` the EC50 was 1 to 250 nM.
`CNC(=O)c1c(-c2ccc(F)cc2)oc2ccc(-c3cc(C(=O)NC4(c5ccccn5)CC4)c(OCC#N)cc3C)cc12` showed an EC50 of 1 to 250 nM.
Molecule `CNC(=O)c1c(-c2ccc(F)cc2)oc2ccc(-c3cc(C(=O)NC4(c5ccnnc5)CC4)ccc3C)cc12` has an EC50 of 1 to 250 nM.
With `CNC(=O)c1c(-c2ccc(F)cc2)oc2ccc(-c3cc(C(=O)NC4(c5ccccn5)CC4)c(OCCc4ccc(N(C)C)cc4)cc3C)cc12` the EC50 was 1 to 250 nM.
With `CNC(=O)c1c(-c2ccc(F)cc2)oc2ccc(-c3cc(C(=O)NC4(c5ccccn5)CC4)c(OCCC4CC4)cc3C)cc12` the EC50 was 1 to 250 nM.
With `CNC(=O)c1c(-c2ccc(F)cc2)oc2ccc(-c3cc(C(=O)NC(C)(C)C)c(OC)cc3OCC(N)=O)cc12` the EC50 was 1 to 250 nM.
In the case of `CNC(=O)c1c(-c2ccc(F)cc2)oc2ccc(-c3cc(C(=O)NC4(c5ncc(F)cn5)CC4)ccc3C)c(F)c12`, the EC50 is reported as 1 to 250 nM.
For `CNC(=O)c1c(-c2ccc(F)cc2)oc2ccc(-c3cc(C(=O)NC4(c5ncc(C)cn5)CC4)ccc3C)c(F)c12`, the EC50 was 1 to 250 nM.
Molecule `CNC(=O)c1c(-c2ccc(F)cc2)oc2ccc(-c3cc(C(=O)NC4(c5nccc(C)n5)CC4)ccc3C)cc12` has an EC50 of 1 to 250 nM.
For `CNC(=O)c1c(-c2ccc(F)cc2)oc2ccc(-c3cc(C(=O)NC4(c5cnn(C)c5)CC4)ccc3C)cc12`, the EC50 was 1 to 250 nM.
With `CNC(=O)c1c(-c2ccc(F)cc2)oc2ccc(-c3cc(C(=O)NC4(c5ccnnc5)CC4)ccc3C)c(F)c12` the EC50 was 1 to 250 nM.
For `CNC(=O)c1c(-c2ccc(F)cc2)oc2ccc(-c3cc(C(=O)NC4(c5ccccn5)CC4)c(OCCC(C)C)cc3C)cc12`, the EC50 was 1 to 250 nM.
`CNC(=O)c1c(-c2ccc(F)cc2)oc2ccc(-c3cc(C(=O)NC4(c5ccccn5)CC4)c(OCc4ccc(Cl)cc4)cc3C)cc12` showed an EC50 of 1 to 250 nM.
Work on `CNC(=O)c1c(-c2ccc(F)cc2)oc2ccc(-c3cc(C(=O)NC4(c5ccccn5)CC4)c(OCc4cccc(Cl)c4)cc3C)cc12` yielded an EC50 of 1 to 250 nM.
Molecule `CNC(=O)c1c(-c2ccc(F)cc2)oc2ccc(-c3cc(C(=O)NC4(c5ccncn5)CC4)ccc3C)cc12` [drawing 684] has an EC50 of 1 to 250 nM.
For `CCCCOc1cc(C)c(-c2ccc3oc(-c4ccc(F)cc4)c(C(=O)NC)c3c2)cc1C(=O)NC1(c2ccccn2)CC1`, the EC50 was 1 to 250 nM.
With `CNC(=O)c1c(-c2ccc(F)cc2)oc2ccc(-c3cc(C(=O)NC4(c5ccccn5)CC4)c(OCC4CCOC4)cc3C)cc12` (stereo not drawn) the EC50 was 1 to 250 nM.
For `CNC(=O)c1c(-c2ccc(F)cc2)oc2ccc(-c3cc(C(=O)NC4(c5ncc(C)cn5)CC4)c(OC)cc3C)c(F)c12`, the EC50 was 1 to 250 nM.
Work on `CNC(=O)c1c(-c2ccc(F)cc2)oc2ccc(-c3cc(C(=O)NC4(c5nc(C)cc(C)n5)CC4)ccc3C)c(F)c12` yielded an EC50 of 1 to 250 nM.
For `CNC(=O)c1c(-c2ccc(F)cc2)oc2ccc(-c3cc(C(=O)NC4(c5ccccn5)CC4)c(OCc4cccnc4)cc3C)cc12`, the EC50 was 1 to 250 nM.
With `CNC(=O)c1c(-c2ccc(F)cc2)oc2ccc(-c3cc(C(=O)NC4(c5ccccn5)CC4)c(OC4CCC4)cc3C)cc12` the EC50 was 1 to 250 nM.
With `CNC(=O)c1c(-c2ccc(F)cc2)oc2ccc(-c3cc(C(=O)NC4(c5ccccn5)CC4)c(OCc4ccccn4)cc3C)cc12` the EC50 was 1 to 250 nM.
`CNC(=O)c1c(-c2ccc(F)cc2)oc2ccc(-c3cc(C(=O)NC4(c5ccccn5)CC4)c(OC4CCOCC4)cc3C)cc12` showed an EC50 of 1 to 250 nM.
With `CNC(=O)c1c(-c2ccc(F)cc2)oc2ccc(-c3cc(C(=O)NC4(c5cncnc5)CC4)c(OC)cc3C)cc12` the EC50 was 1 to 250 nM.

Same assay, conditions: Hepatitis C virus, 24 h, second table titled Table 1d (numbers); HCV replicon; read-out: EC50
`CNC(=O)c1c(-c2ccc(F)cc2)oc2ccc(-c3cc(C(=O)NC4(c5ccncn5)CC4)ccc3C)cc12` [drawing 713] was tested, and the EC50 was 2 nM.
`CNC(=O)c1c(-c2ccc(F)cc2)oc2ccc(-c3cc(C(=O)NC4(c5ncc(F)cn5)CC4)c(OC)cc3C)c(F)c12` [drawing 714] was tested, and the EC50 was 10 nM.

Same assay, conditions: Hepatitis C virus, Table 1b; HCV replicon; read-out: EC50
Work on `CNC(=O)c1c(-c2ccc(F)cc2)oc2ccc(-c3cc(C(=O)NC4(c5noc(C)n5)CC4)c(OC)cc3Cl)cc12` yielded an EC50 of under 250 nM.
Work on `CNC(=O)c1c(-c2ccc(F)cc2)oc2ccc(-c3ccc(-c4ccoc4)c(C(=O)NCC(C)C)c3)cc12` yielded an EC50 of under 250 nM.
With `CNC(=O)c1c(-c2ccc(F)cc2)oc2ccc(-c3ccc(-c4cccc(C(=O)O)c4)c(C(=O)NCC(C)C)c3)cc12` the EC50 was 1000 to 10000 nM.
`CCCc1nnc(C2(NC(=O)c3ccc(C)c(-c4ccc5oc(-c6ccc(F)cc6)c(C(=O)NC)c5c4)c3)CC2)[nH]1` was tested, and the EC50 was under 250 nM.
`CNC(=O)c1c(-c2ccc(F)cc2)oc2ccc(-c3cc(C(=O)NC4(c5cn(C)cn5)CC4)c(OC)cc3C)cc12` showed an EC50 of under 250 nM.
For `CNC(=O)c1c(-c2ccc(F)cc2)oc2ccc(-c3ccc(CCC(C)C)c(C(=O)NCC(C)C)c3)cc12`, the EC50 was over 10000 nM.
Work on `CCNC(=O)c1cc(-c2ccc3oc(-c4ccc(F)cc4)c(C(=O)NC)c3c2F)c(C)cc1OC` yielded an EC50 of under 250 nM.
`CNC(=O)c1c(-c2ccc(F)cc2)oc2cc(N(CCO)S(C)(=O)=O)c(-c3cccc(C(=O)NC(C)(C)c4ccncc4)c3)cc12` gave an EC50 of under 250 nM.
`CNC(=O)c1c(-c2ccc(F)cc2)oc2ccc(-c3cc(C(=O)NC4(c5cncnc5)CC4)ccc3C)cc12` was tested, and the EC50 was under 250 nM.
For `CNC(=O)c1c(-c2ccc(F)cc2)oc2ccc(-c3cc(C(=O)OC)c(OC)cc3OCC(N)=O)cc12`, the EC50 was 1000 to 10000 nM.
`CNC(=O)c1c(-c2ccc(F)cc2)oc2ccc(-c3cc(C(=O)O)ccc3OC(F)(F)F)cc12` showed an EC50 of over 10000 nM.
Work on `CNC(=O)c1c(-c2ccc(F)cc2)oc2ccc(-c3cc(C(=O)NC4(c5nc(C)no5)CC4)ccc3C)cc12` [drawing 478] yielded an EC50 of under 250 nM.
`CCOc1cccc(-c2ccc(-c3ccc4oc(-c5ccc(F)cc5)c(C(=O)NC)c4c3)cc2C(=O)NCC(C)C)c1` gave an EC50 of under 250 nM.
In the case of `CNC(=O)c1c(-c2ccc(F)cc2)oc2ccc(-c3cccc(C(=O)NC(C)(C)c4cccc(C)n4)c3)cc12`, the EC50 is reported as 250 to 1000 nM.
Work on `CNC(=O)c1c(-c2ccc(F)cc2)oc2cc(N(CCO)S(C)(=O)=O)c(-c3cccc(C(=O)NC(C)(C)c4ccnc(C)c4)c3)cc12` yielded an EC50 of under 250 nM.
`CNC(=O)c1c(-c2ccc(F)cc2)oc2ccc(-c3ccc(-c4ccccc4Cl)c(C(=O)NC4(c5ccccn5)CC4)c3)cc12` showed an EC50 of under 250 nM.
Work on `CNC(=O)c1c(-c2ccc(F)cc2)oc2ccc(-c3cc(C(=O)NCC(C)C)ccc3OCCN(Cc3ccccc3)Cc3ccccc3)cc12` yielded an EC50 of 1000 to 10000 nM.
For `CNC(=O)c1c(-c2ccc(F)cc2)oc2ccc(-c3cc(C(=O)NC4(c5nnc(-c6ccccc6OC)[nH]5)CC4)ccc3C)cc12`, the EC50 was under 250 nM.

— patent US8309558B2, “Compounds for the treatment of hepatitis C” (Bristol-Myers Squibb Company, priority 2008, dated 2012)
